In brackets after ≈: the same amount, converted by molar mass. Several values for one entry are separate records, joined by “and”; a condition that tells them apart may be missing. Equal values may be shown once. Read-outs that look alike come from different tables or passages of the source.
What was measured:
Bovine eyes = details: test compounds 1 mM in saline, controls as labelled, exposure 30 seconds
Description: Bovine eyes were collected from a local slaughter house (ABP, Guildford, Surrey, UK) and were transported in cold saline for testing at the laboratory. Each eye was first examined for signs of damage before use. The test was conducted according to Abdelkader et al., (2012), Int J Pharm 432: 1-10. The exposure time of the test substances was 30 seconds. The selected bactericidal compounds were tested at a concentration of 1 mM in saline. Overall, the concentration of ethanol carry-over from the stock of the organic acids was therefore 1 %. […] The test area of the cornea was then washed with 10 ml saline.
Corneal damage to the test area was assessed by fluorescein staining and examined under a cobalt blue filter. […] Each of the seven candidates were tested in triplicate, each test was performed on a separate day from a different batch of eye balls. Corneal histology was done as Abdelkader et al., (2012), Int J Pharm 432: 1-10 by evaluating the damage to the epithelial layer and stroma of the cornea after Haematoxylin and Eosin staining.

Chorioallantoic Membrane = details: organic acids 1 mg/ml, sodium hydroxide 0.1M; for Total Score: number
Description: The HET-CAM was performed according to Alany et al., (2006), J Control Release 111: 145-152. Fertilised white leghorn eggs were purchased from Henry Stewart & Co. Ltd (Fakenham, Norfolk, UK) and delivered to Kingston University. All eggs were checked for damage and incubated at 37°C with 60-70 % relative humidity. At day 4 the eggs were removed from their shells and placed in incubation chambers. At day 9, the CAMs were tested. This was done by applying 200 µl of the testing material and recording results at 30, 120, and 300 seconds. At each of these time-points the effect of the substance on the CAM was evaluated by assessing them against the scoring system (Vanerp YHM, et al., (1990), Toxicology in Vitro 4: 267-269).

[1] = tested on: Neisseria gonorrhoeae strain NCCP11945; experiment: Growth inhibition screen of organic acids; assay type: cell-based; details: strain NCCP11945, in vitro, 1 mM
Description: (§1) The well characterised N. gonorrhoeae strain NCCP11945 (Chung GT et al. (2008) Complete genome sequence of Neisseria gonorrhoeae NCCP11945. Journal of Bacteriology 190: 6035-6036) was used in the screening stage of this experiment. Eight isolates that were obtained from Public Health England from various European locations were used in the log reduction assays. All isolates were first cultured for 24 hours prior to testing by plating on GC solid medium (Oxoid Limited, Hampshire, UK) with Kellogg supplements and incubating at 37 °C, 5% CO2 (Kellogg DS, Jr., et al., (1963), J Bacteriol 85: 1274-1279).
(§2) A full list of all the organic acids tested in this study is in Table 1. The tested compounds include saturated and unsaturated fatty acids, monoglycerides, dicarboxylic acids, and fatty acid sodium salts. All compounds investigated were resuspended at a concentration of 100 mM in ethanol unless stated. All chemicals were obtained from Sigma-Aldrich (Poole, Dorset, UK).
Other organic acids were also active at this concentration, as noted in Table 1.

[2] = tested on: Neisseria gonorrhoeae strain NCCP11945; experiment: Measurement of bactericidal action (log reduction); assay type: cell-based; details: for log reduction at 1000 µM: Neisseria gonorrhoeae
Description: as §1, §2
(§3) Log reductions were done using the same method as in Bergsson et al., (1999), Antimicrob Agents Chemother 43: 2790-2792. Briefly, cells were suspended in GC broth (18 g/L GC Base (Oxiod, Limited) with added defined supplements) to an optical density of 0.3 at 520 nm which is approximately equivalent to 107 - 108 cells per millilitre (Macfarlane DE et al. (1980) Improved media for the culture of Neisseria gonorrhoeae. J Med Microbiol 13: 597-607). Five hundred microliters of the suspension was then added to 5 µl of the 100 mM stocks to give a final concentration of 1 mM. A negative control was also done to calculate the reduction in bacterial titre by adding 500 µl to 5 µl ethanol. The tubes were then mixed at room temperature for two minutes and immediately diluted in a 10 fold dilution series down to 10-4. The dilutions were plated by spreading 10 µl on a quarter of a plate and 100 µl of the neat solution was also plated. Plates were incubated at 37 °C for 48 hours. All samples were plated in duplicate. A reduction in viable cell count by more than 4 log10 was deemed to be bactericidal and was selected for further investigation. Bactericidal compounds were then tested at concentrations of 0.75, 0.5, and 0.25 mM (0.125 mM was also used in some potent compounds) to find the minimum bactericidal concentration. Additional testing at lower concentrations was also done on the eight clinical isolates of European origin.

[3] = tested on: panel of nine N. gonorrhoeae isolates (strain NCCP11945 and eight isolates from Public Health England); experiment: Minimum bactericidal concentration by log reduction, panel of isolates; assay type: cell-based; details: Neisseria gonorrhoeae, 2 min, read-out: Minimum bactericidal concentration
Description: as §1, §3
As shown by the results in Table 3 which presents data on the log reductions of bacterial cell counts, against a panel of nine N. gonorrhoeae isolates (strain NCCP11945 and eight isolates from Public Health England), myristoleic acid (C14:1cΔ9), palmitoleic acid (C16:1cΔ9), linolenic acid (C18:3cΔ9,12,15), and monocaprin (C10) have a minimal bactericidal concentration, defined as the lowest concentration tested to give an average 4 log10 reduction in bacterial count after a two minute exposure, of 0.5 mM. Against a panel of nine N. gonorrhoeae isolates, lauric acid (C12:0), tridecanoic acid (C13:0), and sodium dodecanoate have a minimal bactericidal concentration of 0.75 mM.

in vitro = assay type: cell-based, bovine; details: red blood cells
Description: (§4) Whole bovine blood was obtained from a local slaughter house (ABP, Guildford, Surrey, UK), adding 90 ml blood to 10 ml of 110 mM tri-sodium citrate anticoagulant. RBCs were isolated the same day. The RBCs were washed by three repeats of centrifugation (1,500 x g for 10 minutes) and resuspension in PBSG. Testing was done following European Union Reference Laboratory for alternatives to animal testing (EURL-ECVAM) guidelines (Lewis RW (2010) DB-ALM Protocol No. 99: Red blood cell (RBC) Test System. EURL ECVAM). The organic acids were made up in DMSO and diluted to a DMSO concentration maximum of 10 % (v/v). Samples were shaken at room temperature for 1 hour and then centrifuged at 10,000 rpm for 2 minutes. An aliquot of 750 µl of the supernatant was taken and absorbance at […] tested.

RBCs = experiment: in vitro; assay type: cell-based, bovine
Description: as §4

[4] = tested on: Neisseria gonorrhoeae strain NCCP11945; experiment: Log reduction in artificial tear fluid; assay type: cell-based; details: two minute exposure
Description: Artificial tear fluid was made as in Mirejovsky et al., Optometry and Vision Science, (1991), 68: 858-864. […] Neisseria gonorrhoeae strain NCCP11945 was used in these experiments. As the previous log reductions, […] were suspended in GC broth. The cell suspension was centrifuged to remove the culture medium and the bacteria resuspended in the tear fluid. This was then added to the concentrated organic acid candidates. The cells were then counted again after two minute exposure to estimate any reduction due to the exposure to the fatty acid.
In a first experiment, the artificial tear fluid formulation includes calcium chloride to mimic the calcium in natural tears. As shown by the results in Figure 8, the anti-gonococcal properties of myristoleic acid (C14:1cΔ9), palmitoleic acid (C16:1cΔ9), linolenic acid (C18:3cΔ9,12,15), and monocaprin(C10) are retained in the artificial tear fluid formulation containing calcium chloride.
In a second experiment, calcium chloride was omitted from the artificial tear fluid formulation. The results in Figure 9 indicate that the anti-gonococcal properties of lauric acid (C12:0), tridecanoic acid (C13:0), and sodium dodecanoate were retained in the artificial tear fluid formulation without.

[5] = tested on: N. gonorrhoeae strain NCCP11945; experiment: Cell culture infection model (primary cornea epithelial cells); assay type: cell-based; details: 1 mM, added 90 minutes after infection; Figure 10
Description: Primary cornea epithelial cells were obtained from Life Technologies (Paisley, Glasgow, UK) and grown in Keratinocyte serum free medium (Life Technologies), at 37 °C with 5 % CO2 until 80 % confluent. The cells were then trypsin treated, washed, added to 24 welled plates and incubated for a further 24 hours. The medium was replaced and a fresh P+, Opa+ cells N. gonorrhoeae strain NCCP11945 suspension (approximately 10^7 CFU/ml) was added to the cells to get a multiplicity of infection of 10. All samples were done in duplicate. Monocaprin (1 mM, 0.5 mM, 0.25 mM, and 0.125 mM) was either added directly after the bacteria or after 90 minutes. […] The total time of the infection was three hours. The cells were washed five times with 1 ml PBS for each well. The wells were treated with warmed 1 % saponin in PBS and incubated for 10 minutes at 37 °C. After this, 900 µl GC broth was added and log reductions calculated as above. The CFUs of the drug exposed wells were compared to the CFU counts of the Infection controls to estimate the log reduction caused by the action of the monocaprin. Comparisons of the log reductions at different drug administration times at given concentrations was analysed in an unpaired t test using GraphPad Prism (version 6.01).

Neisseria meningitidis = details: at the concentration used for the antigonococcal ocular formulation; cited from earlier work
Staphylococcus aureus = details: at the concentration used for the antigonococcal ocular formulation; cited from earlier work
Pseudomonas aeruginosa = details: at the concentration used for the antigonococcal ocular formulation; cited from earlier work
Streptococcus pneumoniae = details: at the concentration used for the antigonococcal ocular formulation; cited from earlier work
[6] = NCCP11945, 2 min, read-out: Log reduction of Neisseria gonorrhoeae, strain NCCP11945, 1 mM, 2 minutes
[7] = strain NCCP11945, 1 mM, 2 minutes
[8] = bovine RBCs, shaken 1 hour at room temperature, read-out: H50
[9] = bovine RBCs, shaken 1 hour at room temperature, read-out: H50 (mg/L)
[10] = at their minimum bactericidal concentration
[11] = artificial tear fluid without calcium chloride, Figure 9
[12] = 2 min, strain NCCP11945, 1 mM, 2 minutes, read-out: Log reduction of Neisseria gonorrhoeae
[13] = lowest concentration tested giving an average 4 log10 reduction after two minute exposure, nine isolates

| Structure (SMILES) | Total Score (Chorioallantoic Membrane) | Inhibits growth of Neisseria gonorrhoeae [1] | log reduction at 1000 µM [2, 6] | Log reduction of Neisseria gonorrhoeae [2, 7] | MBC [3] | HC50 at 1 h (in vitro; [8]) | HC50 at 1 h (in vitro; [9]) | RBC lysis assay prediction of irritation (RBCs; [10]) | anti-gonococcal properties in artificial tear fluid [4, 11] | log reduction at 1000 µM [2, 12] | MBC [3, 13] | RBC lysis assay prediction of irritation (RBCs) | other results |
| --- | --- | --- | --- | --- | --- | --- | --- | --- | --- | --- | --- | --- | --- |
| CC(C)=O [Acetone, reference compound] | 14 |  |  |  |  |  |  |  |  |  |  |  | BCOP classification (Bovine eyes): Strong irritant; Total Score (irritation grade in words) (Chorioallantoic Membrane): Severe |
| CCCCCCCCCCCC(=O)O [Lauric acid 12:0, dodecanoic acid] | 0 | Yes | > 6 | able to cause a log reduction | 750 µM (≈ 150 µg/mL) | 1 to 2 mM | 200 to 400 mg/L | not irritating | retained |  |  |  | Inhibits growth of Neisseria gonorrhoeae ([1]; listed as lauric acid): able to inhibit growth; BCOP classification (Bovine eyes; listed as Lauric acid): Non-irritant; BCOP classification (Bovine eyes; listed as lauric acid): will not cause irritation; Total Score (irritation grade in words) (Chorioallantoic Membrane; listed as Lauric acid): None |
| CCCCCCCCCC(=O)OCC(O)CO (centres unmarked) [Monocaprin C10, Monocaprin] |  | Yes |  | able to cause a log reduction |  | 1.6 to 2.4 mM | 400 to 600 mg/L | not irritating |  | > 6 | 500 µM (≈ 123 µg/mL) |  | Inhibits growth of Neisseria gonorrhoeae ([1]; listed as monocaprin): able to inhibit growth; anti-gonococcal properties in artificial tear fluid ([4]; artificial tear fluid containing calcium chloride, Figure 8): retained; kill of Neisseria gonorrhoeae that has infected human epithelial cells [5]: able to kill; bactericidal to Neisseria meningitidis (Neisseria meningitidis): bactericidal; bactericidal to Staphylococcus aureus (Staphylococcus aureus): bactericidal; bactericidal to Pseudomonas aeruginosa (Pseudomonas aeruginosa): bactericidal; bactericidal to Streptococcus pneumoniae (Streptococcus pneumoniae): bactericidal |
| CCCCCCCCCCCC(=O)[O-].[Na+] [Sodium dodecanoate] |  | Yes | > 6 | able to cause a log reduction | 750 µM |  |  |  | retained |  |  | not irritating | Inhibits growth of Neisseria gonorrhoeae ([1]; listed as sodium dodecanoate): able to inhibit growth; HC50 at 1 h (in vitro; bovine): 200 µg/mL to 400 µg/mL and 900 µM to 1.8 mM |
| CCCCCCCCCCCCC(=O)O [Tridecanoic acid 13:0, Tridecanoic acid] |  | Yes |  | able to cause a log reduction |  | > 4.67 mM | > 1000 mg/L |  | retained | > 6 | 750 µM (≈ 161 µg/mL) | not irritating | Inhibits growth of Neisseria gonorrhoeae ([1]; listed as tridecanoic acid): able to inhibit growth |

From patent EP3354264A1, “PROPHYLAXIS AND TREATMENT OF NEISSERIA GONORRHOEAE EYE INFECTION” (Kingston University Higher Education Corporation, priority 2017, dated 2018)
